Assay results taken from patent publication US5070210A, “Novel ketenimines as intermediates for insecticides” (ICI Americas Inc., priority 1990, dated 1991).

How the values were obtained:
Format in all cases: in vivo
[1] = system: Tobacco Budworm [Heliothis virescens (Fabricius)] eggs; experiment: Tobacco budworm egg test; conditions: 2-day old eggs, percent in solution
Procedure, shortened: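 Paper-towel patches of 2-day-old eggs dipped in acetone solutions of compound (0.1% downward), held on larval rearing medium at 78° F. Mortality scored once all control eggs had hatched and larvae were feeding; LC50 from dosage-mortality curves, expressed as percent compound in solution.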

[2] = system: Maize weevil [Sitophilus Zeamais (Motschulsky)]; experiment: Maize weevil insecticidal test; conditions: adult weevils, percent in solution; 48 hours
Procedure, shortened: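 LC50, in percent of compound in solution, was derived from dosage-mortality curves after 48 h at about 25 °C. Ten adult weevils per container fed on four corn seeds briefly immersed in acetone:water (50:50) solutions of up to 0.01% and dried.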

[3] = system: Aster Leafhopper [Macrosteles fascifrens (Stal)]; experiment: Aster leafhopper insecticidal test; conditions: adults/nymphs, percent in solution; 48 hours
Procedure: The compounds in Tables 1 and 2 above were tested for insecticidal activity using the following testing procedures. LC50 values, based on the results of these tests and calculated according to dosage-mortality curves, are expressed in Table 3.
Aster Leafhopper [Macrosteles fascifrens (Stal)]
Oat seedlings (Avena sp) were grown in a commercial potting soil in cups. When the plants were approximately 10 cm tall they were thinned to three plants per cup and dipped for 2-3 seconds in 50-50 acetone-water solutions of the test compounds. When the plants had dried, a clear plastic tube was placed over them and the bottom end pressed into the cup. Ten aster leafhopper adults/nymphs were then placed in each tube and the tops of the tubes covered with white organdy cloth. Mortality counts were made after 48 hours. Test concentrations ranged from 0.05% down to that at which 50% mortality occurred. The LC50 values are expressed below in Table 3 under the heading "LH" in terms of the percent of the test compound in the solution.

[4] = system: Cabbage Looper [Trichoplusia ni (Hubner)]; experiment: Cabbage looper insecticidal test; conditions: second-instar larvae, percent in solution; 3-5 days
Procedure, shortened: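 Squash cotyledons dipped 2-3 s in compound in 50-50 acetone-water, dried, then infested with 5 second-instar larvae and held at high humidity. Mortality scored after 3-5 days at concentrations from 0.1% downward. LC50 from dosage-mortality curves, expressed as percent compound in solution.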

[5] = system: Housefly [Musca domestica]; experiment: Housefly insecticidal test; conditions: μg per 25 female flies; mortality after 48 hours
Procedure, shortened: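 Dose range started at 100 μg per 25 female flies and went downward. Insects (1-2 days old) contacted a dried acetone/peanut-oil deposit in dishes; LC50 values come from dosage-mortality curves at 48 h.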

SMILES	LC50, TBW, E (TBW-E) [1] [%]	LC50, MW [2] [%]	LC50, LH [3] [%]	LC50, CL [4] [%]	LC50, HF [5] [µg]
CC(C)C(=Nc1ccc(OC(F)(F)F)cc1)OCc1cccc(Cc2ccccc2)c1 [Compound 538]	> 0.1	> 0.01	> 0.05	> 0.1	75
CC(C)C(=Nc1ccc(F)cc1)OCCc1cccc(Oc2ccccc2)c1 [Compound 456]	> 0.05	> 0.01	> 0.05	0.017	> 100
FC(F)(F)C(=Nc1ccc(Cl)cc1)OCc1cccc(Oc2ccccc2)c1 [Compound 35]	0.03	> 0.01	> 0.05	0.008	15
CC(C)C(=Nc1ccc(F)c(Cl)c1)OCc1cccc(Oc2ccc(Cl)cn2)c1 [Compound 527]	0.035	> 0.01	> 0.05	0.00065	47
CC(C)C(=Nc1ccc(C(F)(F)F)cc1)OCc1cccc(Cc2ccccc2)c1 [Compound 543]		> 0.01	< 0.05	0.0008	< 100
CC(C)C(=Nc1cccc(C(F)(F)F)c1)OCc1cc(Oc2ccc(F)cc2)ccn1 [Compound 528]	> 0.1	> 0.01	> 0.05	0.0075	
Clc1ccc(N=C(OCc2cccc(Oc3ccccc3)c2)C(Cl)Cl)c2ccccc12 [Compound 98]	0.1		> 0.05	0.016	> 100
CCc1ccc(N=C(OCc2cccc(Oc3ccc(F)cc3)c2)C(C)C)cc1 [Compound 159]	0.08		0.0025	0.001	25
Fc1ccc(Oc2cccc(COC(=Nc3ccc(F)c(Cl)c3)C(F)(F)C(F)(F)F)c2)cc1 [Compound 258]	> 0.1		> 0.05	0.003	> 100
CC(C)C(=Nc1c(F)c(F)cc(F)c1F)OCc1cccc(Oc2ccccc2)c1 [Compound 57]	0.1		0.0005	0.004	> 100
CCOC(=O)c1cc(N=C(OCc2cccc(Oc3ccccc3)c2)C(C)C)ccc1Cl [Compound 102]	> 0.1		> 0.05	0.075	> 100
Cc1ccc(N=C(OCc2cccc(Oc3ccccc3)c2)C(C)C)cc1Cl [Compound 90]	0.016		0.001	> 0.1	> 100
COc1ccc(OC)c(N=C(OCc2cccc(Oc3ccccc3)c2)C(C)C)c1 [Compound 69]	> 0.1		> 0.05	0.09	> 100
CCc1cccc(N=C(OCc2cccc(Oc3ccccc3)c2)C(C)(C)C)c1 [Compound 162]	> 0.1		> 0.05	0.035	> 100
CC(C)CC(=Nc1cc(Cl)cc(Cl)c1)OCc1cccc(Oc2ccccc2)c1 [Compound 10]	> 0.1		> 0.05	0.01	> 100
CC(C)C(=Nc1ccc(C(F)(F)F)c(Cl)c1)OCc1cccc(Oc2ccccc2)c1 [Compound 83]	> 0.1		> 0.05	0.007	> 100
CC(C)(Cl)C(=Nc1ccc(C#N)c(Cl)c1)OCc1cccc(Oc2ccccc2)c1 [Compound 108]	> 0.1		> 0.01	0.002	44
CC(C)C(=Nc1ccc(I)cc1)OCc1cccc(Oc2ccccc2)c1 [Compound 137]	0.04		0.008	0.003	18
CSc1ccc(Oc2cccc(COC(=Nc3ccc(F)cc3)C(C)C)c2)cc1 [Compound 257]	> 0.1		> 0.05	0.008	> 100
CC(C)C(=Nc1ccc(F)c(Cl)c1)OCc1cc(Oc2ccc(F)cc2)ccn1 [Compound 529]	> 0.1	> 0.01	> 0.05	> 0.0025	
CC(C)C(=Nc1ccc2c(c1)OCO2)OCc1cccc(Oc2ccc(F)cc2)n1 [Compound 465]	0.027		0.0025	0.0017	8
COCc1c(F)c(F)c(COC(=Nc2ccc(F)c(Cl)c2F)C(C)C)c(F)c1F [Compound 522]	> 0.1	> 0.01	0.05	> 0.1	
COc1c(Cl)cc(N=C(OCc2cccc(Oc3ccccc3)c2)C(C)C)cc1Cl [Compound 91]	> 0.01		0.003	0.002	37
CC(C)C(=Nc1ccc(F)c(Cl)c1)OCc1cccc(Cc2ccccc2)c1 [Compound 541]		> 0.01	> 0.05	0.001	< 100
CC(C)(C)C(=Nc1ccc(Br)cc1)OCc1cccc(Oc2ccccc2)c1 [Compound 135]	> 0.1		> 0.05	0.004	> 100
